Consider one compound from publication PMC12344774, “Ferrocenyl Quinoline-Benzimidazole Hybrids: A Multistage Strategy to Combat Drug-Resistant Malaria” (Inorganic Chemistry, 2025).

Data set [1] can be described thus: Cyclic voltammetry of the ferrocene/ferrocenium couple. Format: physicochemical. The protocol: It has been proposed that the oxidation of ferrocene (Fe(C5H5)2) to the ferrocenium cation (Fe(C5H5)2 ^+) is a reversible one-electron transfer process. […] This prompted the investigation into the electrochemical properties of the Fe(C5H5)2/Fe(C5H5)2 ^+ couple in complexes C1–C5, using cyclic voltammetry. FQ was used as the reference, as it is considered the benchmark for all newly developed ferrocenyl-based antiplasmodials.
Nuclear magnetic resonance (NMR) spectra were recorded on a Bruker XR600 MHz spectrometer (^1H at 599.95 MHz and ^13C{^1H} at 151.0 MHz), a Bruker […] (^1H at 400.22 MHz and ^13C{^1H} at 100.65 MHz), or a Varian Mercury 300 (^1H at 300.08 MHz) spectrometer. These were equipped with a Bruker Biospin GmbH casing and sample injector at 30 °C and tetramethylsilane (TMS) was used as the internal standard. Coupling constants are reported in Hz and chemical shifts are reported in ppm relative to residual solvent signals. Infrared (IR) spectroscopy was performed on a PerkinElmer Spectrum 100 FT-IR spectrometer, using attenuated total reflectance (ATR), with vibrations measured in units of cm^–1. Cyclic voltammetric measurements were carried out at ambient temperature under an inert argon atmosphere using a three-electrode system on a BASi Epsilon Eclipse potentiostat/galvanostat electrochemical workstation. The C-3 cell stand, equipped with a glassy carbon working electrode, Ag/AgCl (saturated NaCl) reference electrode, and a Pt wire auxiliary electrode were used to carry out electrochemical measurements. All experiments were carried out in anhydrous dichloromethane containing 0.10 M tetra-n-butylammonium perchlorate (TBAP) as the supporting electrolyte.

Data set [2] can be described thus: Hydroxyl radical (ROS) generation with H2O2, DCFH2 fluorescent probe. The following applies: 200 μM in 1:4 DMSO/PBS, H2O2 and H2DCF added, 30 min. The source says: Fluorogenic redox-sensitive probes are often employed to measure the presence of ROS, due to their low cost, ease of use, and nontoxicity, allowing for spectrofluorimetric measurements. 2′,7′-Dichlorodihydrofluorescein diacetate (DCFH2-DA) is the most widely used fluorogenic probe. Cleavage of the acetate groups, through alkaline hydrolysis, generates 2′,7′-dichlorodihydrofluorescein (DCFH2), which in the presence of oxidants, yields the highly fluorescent 2′,7′-dichlorofluorescein (DCF, λem = 523 nm). The DCFH2 probe reacts with an array of oxidants, making it an ideal indicator of general oxidative stress. […] The presence of these radicals was confirmed by monitoring the fluorescence over time (Figure ). […].
Stock solutions of DCFH2-DA were prepared to 1 mM in 100% DMSO and stored at −20 °C in the dark until use. The deacetylation of DCFH2-DA involved adding 2 μL of a 0.5 M NaOH solution to 200 μL of the 1 mM DCFH2-DA stock solution. The solution was mixed for 30 min, in the dark, at room temperature and then quenched with 800 μL of PBS buffer to obtain a 200 μM H2DCF 1:4 DMSO/PBS solution mixture.
[…]. The fluorometer was blanked using a 1:4 DMSO/PBS solution mixture. To identify hydroxyl radical production, 2 μL of a 0.5% H2O2 solution was added to 900 μL of the 200 μM complex solution in a cuvette at 25 °C. 100 μL of the prepared H2DCF solution (200 μM) was quickly added, and the readings recorded at 530 nm (emission wavelength), at 2 min intervals, over 30 min.

In a further data set the test system is NF54. The following applies: drug-sensitive NF54; footnote e: Results from ref (number not given); read-out: PfNF54 IC50 ± SEM; cited from earlier work.
Another data set concerns K1. The note with it: MDR K1; footnote e: Results from ref (number not given); read-out: PfK1 IC50 ± SEM; cited from earlier work.
Setting [3] is: scan rate 100 mV/s, CH2Cl2, 0.1 M TBAP.
[4] abbreviates: vs Ag/AgCl, scan rate 100 mV/s, CH2Cl2, 0.1 M TBAP.

Turning to `CN(C)Cc1ccc[c-]1CNc1ccnc2cc(Cl)ccc12.[Fe+2].c1cc[cH-]c1` (stereo not drawn) [FQ, ferroquine, reference compound], the “Reversibility of the ferrocene/ferrocenium couple” value in data set [1] (DCM/0.1 M TBAP system) is “chemically and electrochemically reversible”. Moreover, in data set [1] (setting [3]), the Ipc/Ipa came out at 1.00 and the ΔE came out at 0.125 V. For the same compound, in data set [1] (setting [4]), the “Anodic peak potential Epa” value was determined as 0.613 V, the “Cathodic peak potential Epc” value was 0.488 V and the “Half-wave potential E1/2” value worked out at 0.550 V. Further, the “Hydroxyl radical generation (fluorescence intensity over time)” value in data set [2] was “generate hydroxyl radicals”. The IC50 in the data set on NF54 is 0.02 ± 0.003 µM. The half-inhibitory concentration (IC50) in the data set with K1 is 0.0239 ± 0.0002 µM.

For orientation: IC50 means the point on the concentration scale where inhibition reaches its midpoint.
